Measurements reported in patent CN107308170A, “药物联用在制备抗炎药物中的应用以及抗炎药物组合物” (priority 2017, dated 2017).

What was measured:
[1] = test system: xylene-induced swelling of the mouse right ear (二甲苯所致的小鼠右耳肿胀); test: 二甲苯致小鼠耳肿胀抗炎试验 (xylene-induced mouse ear swelling test); assay type: in vivo; details: oral gavage; for inhibition of xylene-induced right ear swelling (in words) / swelling degree compared with aspirin (in words): used alone, 10mg/kg; for swelling degree compared with aspirin (in words): versus aspirin 150mg/kg
[2] = test system: Hep-2 cells (Hep-2细胞); assay type: cell-based; details: 3 days, MTT

Compound | swelling degree ([1]; aspirin 150mg/kg, once daily for 5 days, xylene 50μL on right ear 1h after last dose, ears weighed 1h later) [mg] | anti-inflammatory effect compared between aspirin and test substances (in words) ([1]; aspirin 150mg/kg, test substances 10mg/kg, 5 days) | inhibition of xylene-induced right ear swelling (in words) ([1]; 5 days) | swelling degree compared with aspirin (in words) ([1]; 5 days) | CC50 compared with the three-component combination (in words) [2]
CC(=O)Oc1ccccc1C(=O)O [阿司匹林, reference compound] | 8.56 | 优于蟾毒灵、酯蟾毒配基或远华蟾蜍精 | – | – | –
C[C@]12CC[C@H](O)C[C@@]1(O)CC[C@@H]1[C@@H]2CC[C@]2(C)[C@@H](c3ccc(=O)oc3)CC[C@]12O [远华蟾蜍精] | – | – | 能够抑制二甲苯所致的小鼠右耳肿胀 | 肿胀度大于阳性对照药阿司匹林 | 远远小于蟾毒灵、酯蟾毒配基以及远华蟾蜍精三者的组合
C[C@]12CC[C@H](O)C[C@H]1CC[C@@H]1[C@@H]2CC[C@]2(C)[C@@H](c3ccc(=O)oc3)C[C@H]3O[C@]132 [酯蟾毒配基] | – | – | 能够抑制二甲苯所致的小鼠右耳肿胀 | 肿胀度大于阳性对照药阿司匹林 | 远远小于蟾毒灵、酯蟾毒配基以及远华蟾蜍精三者的组合
C[C@]12CC[C@H](O)C[C@H]1CC[C@@H]1[C@@H]2CC[C@]2(C)[C@@H](c3ccc(=O)oc3)CC[C@]12O [蟾毒灵] | – | – | 能够抑制二甲苯所致的小鼠右耳肿胀 | 肿胀度大于阳性对照药阿司匹林 | 远远小于蟾毒灵、酯蟾毒配基以及远华蟾蜍精三者的组合
